Reference: the kinase profiling compilation of Christmann-Franck et al. (2016)

Key:
Assay in all cases: radiometric filter-binding kinase assay, Kinase HotSpot
Conditions in all cases: compound 0.5 µM; ATP 10 µM
TGFBR2 (human) = TGFBR2 (human) (UniProt P37173)
PRKG2 (human) = PRKG2 (human) (UniProt Q13237)
EPHA8 (human) = EPHA8 (human) (UniProt P29322)
INSRR (human) = INSRR (human) (UniProt P14616)
PRKX (human) = PRKX (human) (UniProt P51817)
PRKCB1 (human) = PRKCB1 (human) (UniProt P05771)
MAPK13 (human) = MAPK13 (human) (UniProt O15264)
FES (human) = FES (human) (UniProt P07332)
EPHA4 (human) = EPHA4 (human) (UniProt P54764)
MINK1 (human) = MINK1 (human) (UniProt Q8N4C8)
[1] = test system: MAP2K6 (human), P52564 [S207E/T211E]
PRKCI (human) = PRKCI (human) (UniProt P41743)
PIM2 (human) = PIM2 (human) (UniProt Q9P1W9)
MAP3K2 (human) = MAP3K2 (human) (UniProt Q9Y2U5)
MERTK (human) = MERTK (human) (UniProt Q12866)
MKNK2 (human) = MKNK2 (human) (UniProt Q9HBH9)
ROS1 (human) = ROS1 (human) (UniProt P08922)
PAK2 (human) = PAK2 (human) (UniProt Q13177)
LTK (human) = LTK (human) (UniProt P29376)
STK10 (human) = STK10 (human) (UniProt O94804)
CAMK2B (human) = CAMK2B (human) (UniProt Q13554)
PHKG1 (human) = PHKG1 (human) (UniProt Q16816)
FGFR4 (human) = FGFR4 (human) (UniProt P22455)
CHEK2 (human) = CHEK2 (human) (UniProt O96017)
PLK1 (human) = PLK1 (human) (UniProt P53350)
WNK3 (human) = WNK3 (human) (UniProt Q9BYP7)
CSF1R (human) = CSF1R (human) (UniProt P07333)
NUAK1 (human) = NUAK1 (human) (UniProt O60285)
CLK3 (human) = CLK3 (human) (UniProt P49761)
GSK3B (human) = GSK3B (human) (UniProt P49841)
DYRK4 (human) = DYRK4 (human) (UniProt Q9NR20)
ACVR1 (human) = ACVR1 (human) (UniProt Q04771)
HIPK1 (human) = HIPK1 (human) (UniProt Q86Z02)
EPHA2 (human) = EPHA2 (human) (UniProt P29317)
MUSK (human) = MUSK (human) (UniProt O15146)
SRMS (human) = SRMS (human) (UniProt Q9H3Y6)
CDK1 CCNA2 (human) = CDK1 CCNA2 (human) (UniProt P06493+P20248)
HCK (human) = HCK (human) (UniProt P08631)
PLK3 (human) = PLK3 (human) (UniProt Q9H4B4)
MAP4K4 (human) = MAP4K4 (human) (UniProt O95819)
DDR2 (human) = DDR2 (human) (UniProt Q16832)
MELK (human) = MELK (human) (UniProt Q14680)

EPHA8 (human), sequence (P29322 whole entry, looked up): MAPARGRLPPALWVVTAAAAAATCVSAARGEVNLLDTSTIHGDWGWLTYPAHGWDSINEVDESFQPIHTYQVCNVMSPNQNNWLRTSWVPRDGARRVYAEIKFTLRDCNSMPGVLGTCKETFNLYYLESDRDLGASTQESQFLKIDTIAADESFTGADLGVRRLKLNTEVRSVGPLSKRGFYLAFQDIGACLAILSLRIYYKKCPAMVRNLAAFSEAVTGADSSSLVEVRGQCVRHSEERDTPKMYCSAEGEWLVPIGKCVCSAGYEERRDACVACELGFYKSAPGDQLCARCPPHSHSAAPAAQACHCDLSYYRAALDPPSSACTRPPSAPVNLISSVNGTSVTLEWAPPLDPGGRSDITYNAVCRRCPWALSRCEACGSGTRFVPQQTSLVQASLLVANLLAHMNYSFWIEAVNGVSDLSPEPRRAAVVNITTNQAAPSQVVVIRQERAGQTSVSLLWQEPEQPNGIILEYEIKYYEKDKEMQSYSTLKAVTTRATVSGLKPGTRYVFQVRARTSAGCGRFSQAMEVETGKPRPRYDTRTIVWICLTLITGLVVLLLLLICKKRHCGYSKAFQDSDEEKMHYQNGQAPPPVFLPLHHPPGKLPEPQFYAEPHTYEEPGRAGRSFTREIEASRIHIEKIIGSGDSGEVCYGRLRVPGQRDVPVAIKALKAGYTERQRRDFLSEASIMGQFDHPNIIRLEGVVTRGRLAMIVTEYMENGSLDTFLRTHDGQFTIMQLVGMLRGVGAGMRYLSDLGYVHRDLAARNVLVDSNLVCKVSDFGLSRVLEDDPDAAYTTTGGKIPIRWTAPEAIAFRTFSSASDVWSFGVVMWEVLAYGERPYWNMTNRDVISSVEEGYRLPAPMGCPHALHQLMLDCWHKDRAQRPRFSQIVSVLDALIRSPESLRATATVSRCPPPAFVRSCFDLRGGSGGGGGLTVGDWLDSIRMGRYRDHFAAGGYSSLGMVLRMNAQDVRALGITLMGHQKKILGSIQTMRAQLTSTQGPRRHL
PRKCB1 (human), sequence (P05771 whole entry, looked up): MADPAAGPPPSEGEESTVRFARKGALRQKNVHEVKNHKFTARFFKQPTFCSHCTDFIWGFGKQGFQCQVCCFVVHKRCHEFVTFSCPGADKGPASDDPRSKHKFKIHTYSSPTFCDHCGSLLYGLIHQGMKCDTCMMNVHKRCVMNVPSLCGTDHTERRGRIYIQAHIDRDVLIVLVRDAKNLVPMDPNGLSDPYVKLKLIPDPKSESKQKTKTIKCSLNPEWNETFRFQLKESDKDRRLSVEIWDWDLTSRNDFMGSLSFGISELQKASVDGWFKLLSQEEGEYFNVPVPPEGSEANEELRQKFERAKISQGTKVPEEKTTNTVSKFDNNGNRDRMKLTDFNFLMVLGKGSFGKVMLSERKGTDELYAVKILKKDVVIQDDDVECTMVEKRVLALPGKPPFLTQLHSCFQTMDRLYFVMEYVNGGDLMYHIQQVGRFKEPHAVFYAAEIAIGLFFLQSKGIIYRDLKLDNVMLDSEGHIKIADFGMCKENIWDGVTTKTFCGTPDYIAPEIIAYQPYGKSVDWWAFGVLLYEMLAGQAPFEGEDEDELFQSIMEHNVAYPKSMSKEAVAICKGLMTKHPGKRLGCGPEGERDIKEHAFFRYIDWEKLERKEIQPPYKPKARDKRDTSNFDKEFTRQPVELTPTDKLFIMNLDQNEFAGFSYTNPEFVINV
PHKG1 (human), sequence (Q16816 whole entry, looked up): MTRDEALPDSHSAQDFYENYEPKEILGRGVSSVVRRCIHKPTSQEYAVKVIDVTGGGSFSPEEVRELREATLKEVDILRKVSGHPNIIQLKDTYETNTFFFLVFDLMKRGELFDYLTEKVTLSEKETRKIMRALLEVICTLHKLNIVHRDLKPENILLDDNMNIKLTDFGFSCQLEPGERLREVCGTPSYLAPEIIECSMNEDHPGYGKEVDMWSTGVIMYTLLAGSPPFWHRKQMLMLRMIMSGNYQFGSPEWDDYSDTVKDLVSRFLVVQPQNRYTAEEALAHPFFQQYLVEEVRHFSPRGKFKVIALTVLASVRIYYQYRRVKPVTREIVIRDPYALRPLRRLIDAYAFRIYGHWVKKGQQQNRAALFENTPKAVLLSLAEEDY
MINK1 (human), sequence (Q8N4C8 whole entry, looked up): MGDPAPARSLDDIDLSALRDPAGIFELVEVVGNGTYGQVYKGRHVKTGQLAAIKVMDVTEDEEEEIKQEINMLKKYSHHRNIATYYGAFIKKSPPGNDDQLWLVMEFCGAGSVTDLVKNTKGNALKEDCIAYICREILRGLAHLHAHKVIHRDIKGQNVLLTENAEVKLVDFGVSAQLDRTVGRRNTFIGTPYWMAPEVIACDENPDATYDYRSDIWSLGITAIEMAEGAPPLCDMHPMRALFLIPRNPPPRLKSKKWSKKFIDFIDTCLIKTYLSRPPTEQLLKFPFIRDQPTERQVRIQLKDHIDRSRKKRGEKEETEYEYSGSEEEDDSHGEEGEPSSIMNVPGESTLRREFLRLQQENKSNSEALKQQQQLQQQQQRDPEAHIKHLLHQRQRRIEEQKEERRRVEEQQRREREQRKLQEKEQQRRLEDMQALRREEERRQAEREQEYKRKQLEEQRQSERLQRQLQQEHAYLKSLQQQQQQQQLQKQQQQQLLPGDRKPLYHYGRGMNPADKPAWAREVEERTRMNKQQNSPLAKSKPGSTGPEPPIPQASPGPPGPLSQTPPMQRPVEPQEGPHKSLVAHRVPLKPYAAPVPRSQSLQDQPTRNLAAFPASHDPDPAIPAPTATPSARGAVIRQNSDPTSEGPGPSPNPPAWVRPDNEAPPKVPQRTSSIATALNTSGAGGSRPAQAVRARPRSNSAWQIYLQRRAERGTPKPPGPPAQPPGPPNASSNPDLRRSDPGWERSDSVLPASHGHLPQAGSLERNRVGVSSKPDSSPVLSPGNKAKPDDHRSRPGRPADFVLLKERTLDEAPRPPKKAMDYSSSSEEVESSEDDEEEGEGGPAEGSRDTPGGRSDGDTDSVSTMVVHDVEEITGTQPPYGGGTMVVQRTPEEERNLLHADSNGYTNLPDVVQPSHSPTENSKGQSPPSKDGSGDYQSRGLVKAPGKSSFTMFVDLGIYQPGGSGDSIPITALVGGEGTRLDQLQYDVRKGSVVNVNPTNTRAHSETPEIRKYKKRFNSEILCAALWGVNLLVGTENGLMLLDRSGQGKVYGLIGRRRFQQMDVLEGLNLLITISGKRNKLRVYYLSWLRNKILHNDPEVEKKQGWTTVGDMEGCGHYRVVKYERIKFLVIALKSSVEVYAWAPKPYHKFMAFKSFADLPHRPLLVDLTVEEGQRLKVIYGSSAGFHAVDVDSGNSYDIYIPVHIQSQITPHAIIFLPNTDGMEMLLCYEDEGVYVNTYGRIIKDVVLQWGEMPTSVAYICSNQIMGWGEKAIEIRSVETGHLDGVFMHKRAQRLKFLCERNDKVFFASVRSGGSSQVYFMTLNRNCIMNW
EPHA2 (human), sequence (P29317 whole entry, looked up): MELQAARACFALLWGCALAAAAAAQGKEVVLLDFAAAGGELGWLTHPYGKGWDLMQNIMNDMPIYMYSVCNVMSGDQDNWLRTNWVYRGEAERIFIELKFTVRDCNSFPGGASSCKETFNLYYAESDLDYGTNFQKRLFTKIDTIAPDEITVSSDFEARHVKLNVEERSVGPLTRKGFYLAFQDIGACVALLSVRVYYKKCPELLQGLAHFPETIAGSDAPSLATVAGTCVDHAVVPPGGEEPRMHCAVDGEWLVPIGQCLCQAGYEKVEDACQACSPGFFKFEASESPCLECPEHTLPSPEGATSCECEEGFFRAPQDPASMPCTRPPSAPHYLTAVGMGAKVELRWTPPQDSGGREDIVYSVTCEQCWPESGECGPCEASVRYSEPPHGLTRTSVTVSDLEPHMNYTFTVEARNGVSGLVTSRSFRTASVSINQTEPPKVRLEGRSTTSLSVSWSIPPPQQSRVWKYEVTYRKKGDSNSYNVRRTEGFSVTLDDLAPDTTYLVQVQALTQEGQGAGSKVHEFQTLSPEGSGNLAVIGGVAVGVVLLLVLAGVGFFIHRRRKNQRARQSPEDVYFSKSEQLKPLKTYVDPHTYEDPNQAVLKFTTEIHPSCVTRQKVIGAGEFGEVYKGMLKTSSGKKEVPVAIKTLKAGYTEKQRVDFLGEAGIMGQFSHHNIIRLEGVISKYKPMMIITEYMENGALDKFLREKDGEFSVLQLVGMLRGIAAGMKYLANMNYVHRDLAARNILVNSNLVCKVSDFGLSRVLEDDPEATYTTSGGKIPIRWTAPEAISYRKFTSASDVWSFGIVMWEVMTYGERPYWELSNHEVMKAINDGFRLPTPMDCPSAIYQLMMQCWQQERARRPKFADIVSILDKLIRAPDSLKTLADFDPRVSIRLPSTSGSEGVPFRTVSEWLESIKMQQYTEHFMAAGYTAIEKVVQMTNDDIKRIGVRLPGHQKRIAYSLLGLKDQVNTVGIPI
PLK3 (human), sequence (Q9H4B4 whole entry, looked up): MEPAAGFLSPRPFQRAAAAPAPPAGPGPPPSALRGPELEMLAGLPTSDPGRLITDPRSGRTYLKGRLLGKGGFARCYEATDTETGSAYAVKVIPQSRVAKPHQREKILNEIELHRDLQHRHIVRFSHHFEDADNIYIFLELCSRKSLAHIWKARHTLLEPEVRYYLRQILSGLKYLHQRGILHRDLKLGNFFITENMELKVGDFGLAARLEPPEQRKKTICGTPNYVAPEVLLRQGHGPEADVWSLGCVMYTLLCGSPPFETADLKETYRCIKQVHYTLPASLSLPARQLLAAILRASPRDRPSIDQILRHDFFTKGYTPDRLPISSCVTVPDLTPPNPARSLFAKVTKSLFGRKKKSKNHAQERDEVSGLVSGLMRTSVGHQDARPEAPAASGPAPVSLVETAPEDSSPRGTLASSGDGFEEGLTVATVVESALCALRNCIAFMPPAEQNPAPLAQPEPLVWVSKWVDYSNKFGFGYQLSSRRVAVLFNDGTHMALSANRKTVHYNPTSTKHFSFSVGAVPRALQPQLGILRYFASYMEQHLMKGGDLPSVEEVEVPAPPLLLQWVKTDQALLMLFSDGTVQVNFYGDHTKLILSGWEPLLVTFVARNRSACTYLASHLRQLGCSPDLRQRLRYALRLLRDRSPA

Compound: COc1cc2ncnc(Nc3ccc(OCc4ccccc4)cc3)c2cc1OC
- residual activity (TGFBR2 (human)): 121%
- residual activity (PRKG2 (human)): 104%
- residual activity (EPHA8 (human)): 102%
- residual activity (INSRR (human)): 99.9%
- residual activity (PRKX (human)): 105%
- residual activity (PRKCB1 (human)): 97.4%
- residual activity (MAPK13 (human)): 103%
- residual activity (FES (human)): 97%
- residual activity (EPHA4 (human)): 98.5%
- residual activity (MINK1 (human)): 94.3%
- residual activity [1]: 109%
- residual activity (PRKCI (human)): 101%
- residual activity (PIM2 (human)): 97.6%
- residual activity (MAP3K2 (human)): 113%
- residual activity (MERTK (human)): 19.5%
- residual activity (MKNK2 (human)): 88.1%
- residual activity (ROS1 (human)): 98%
- residual activity (PAK2 (human)): 102%
- residual activity (LTK (human)): 98.6%
- residual activity (STK10 (human)): 68.2%
- residual activity (CAMK2B (human)): 105%
- residual activity (PHKG1 (human)): 100%
- residual activity (FGFR4 (human)): 106%
- residual activity (CHEK2 (human)): 14.2%
- residual activity (PLK1 (human)): 101%
- residual activity (WNK3 (human)): 90.8%
- residual activity (CSF1R (human)): 97.8%
- residual activity (NUAK1 (human)): 94.8%
- residual activity (CLK3 (human)): 98.2%
- residual activity (GSK3B (human)): 119%
- residual activity (DYRK4 (human)): 97.6%
- residual activity (ACVR1 (human)): 101%
- residual activity (HIPK1 (human)): 104%
- residual activity (EPHA2 (human)): 106%
- residual activity (MUSK (human)): 99.3%
- residual activity (SRMS (human)): 104%
- residual activity (CDK1 CCNA2 (human)): 97.2%
- residual activity (HCK (human)): 74.5%
- residual activity (PLK3 (human)): 98%
- residual activity (MAP4K4 (human)): 103%
- residual activity (DDR2 (human)): 100%
- residual activity (MELK (human)): 102%

Compound: Cn1c2ccccc2c2c3c(c4c5ccccc5n(CCC#N)c4c21)CNC3=O
- residual activity (TGFBR2 (human)): 117%
- residual activity (PRKG2 (human)): 28.2%
- residual activity (EPHA8 (human)): 91.7%
- residual activity (INSRR (human)): 82.5%
- residual activity (PRKX (human)): 60.1%
- residual activity (PRKCB1 (human)): 18.7%
- residual activity (MAPK13 (human)): 104%
- residual activity (FES (human)): 78.4%
- residual activity (EPHA4 (human)): 90.4%
- residual activity (MINK1 (human)): 2.48%
- residual activity [1]: 21.1%
- residual activity (PRKCI (human)): 91.6%
- residual activity (PIM2 (human)): 101%
- residual activity (MAP3K2 (human)): 2.96%
- residual activity (MERTK (human)): 59.9%
- residual activity (MKNK2 (human)): 18%
- residual activity (ROS1 (human)): 1.18%
- residual activity (PAK2 (human)): 91.7%
- residual activity (LTK (human)): 8.79%
- residual activity (STK10 (human)): 20.1%
- residual activity (CAMK2B (human)): 51.3%
- residual activity (PHKG1 (human)): 1.76%
- residual activity (FGFR4 (human)): 86.5%
- residual activity (CHEK2 (human)): 50.2%
- residual activity (PLK1 (human)): 103%
- residual activity (WNK3 (human)): 93.1%
- residual activity (CSF1R (human)): 84.1%
- residual activity (NUAK1 (human)): 3.86%
- residual activity (CLK3 (human)): 23.1%
- residual activity (GSK3B (human)): 38.9%
- residual activity (DYRK4 (human)): 95.7%
- residual activity (ACVR1 (human)): 155%
- residual activity (HIPK1 (human)): 81.1%
- residual activity (EPHA2 (human)): 92.5%
- residual activity (MUSK (human)): 34.8%
- residual activity (SRMS (human)): 96.6%
- residual activity (CDK1 CCNA2 (human)): 55.5%
- residual activity (HCK (human)): 96.8%
- residual activity (PLK3 (human)): 88.1%
- residual activity (MAP4K4 (human)): 0.433%
- residual activity (DDR2 (human)): 73.3%
- residual activity (MELK (human)): 21.1%

Compound: CN(C)c1ccc(/C=C2\C(=O)Nc3ccccc32)cc1
- residual activity (TGFBR2 (human)): 124%
- residual activity (PRKG2 (human)): 105%
- residual activity (EPHA8 (human)): 103%
- residual activity (INSRR (human)): 94.5%
- residual activity (PRKX (human)): 104%
- residual activity (PRKCB1 (human)): 96.1%
- residual activity (MAPK13 (human)): 97.1%
- residual activity (FES (human)): 97.8%
- residual activity (EPHA4 (human)): 95.2%
- residual activity (MINK1 (human)): 79%
- residual activity [1]: 94.7%
- residual activity (PRKCI (human)): 101%
- residual activity (PIM2 (human)): 82.4%
- residual activity (MAP3K2 (human)): 99.8%
- residual activity (MERTK (human)): 92.7%
- residual activity (MKNK2 (human)): 90.5%
- residual activity (ROS1 (human)): 94.9%
- residual activity (PAK2 (human)): 102%
- residual activity (LTK (human)): 96.8%
- residual activity (STK10 (human)): 95.4%
- residual activity (CAMK2B (human)): 108%
- residual activity (PHKG1 (human)): 99.1%
- residual activity (FGFR4 (human)): 97.4%
- residual activity (CHEK2 (human)): 91.6%
- residual activity (PLK1 (human)): 103%
- residual activity (WNK3 (human)): 98.1%
- residual activity (CSF1R (human)): 77.5%
- residual activity (NUAK1 (human)): 80.4%
- residual activity (CLK3 (human)): 89.4%
- residual activity (GSK3B (human)): 111%
- residual activity (DYRK4 (human)): 94.8%
- residual activity (ACVR1 (human)): 104%
- residual activity (HIPK1 (human)): 103%
- residual activity (EPHA2 (human)): 107%
- residual activity (MUSK (human)): 96.4%
- residual activity (SRMS (human)): 97.9%
- residual activity (CDK1 CCNA2 (human)): 96.9%
- residual activity (HCK (human)): 110%
- residual activity (PLK3 (human)): 97%
- residual activity (MAP4K4 (human)): 74.5%
- residual activity (DDR2 (human)): 103%
- residual activity (MELK (human)): 89.3%

Compound: CCCCc1c(-c2ccc(OC)cc2)[nH]c2nccnc12
- residual activity (TGFBR2 (human)): 74.8%
- residual activity (PRKG2 (human)): 93.9%
- residual activity (EPHA8 (human)): 103%
- residual activity (INSRR (human)): 83.2%
- residual activity (PRKX (human)): 102%
- residual activity (PRKCB1 (human)): 99.4%
- residual activity (MAPK13 (human)): 99.1%
- residual activity (FES (human)): 66%
- residual activity (EPHA4 (human)): 85.5%
- residual activity (MINK1 (human)): 84.4%
- residual activity [1]: 96%
- residual activity (PRKCI (human)): 72.8%
- residual activity (PIM2 (human)): 115%
- residual activity (MAP3K2 (human)): 90.9%
- residual activity (MERTK (human)): 92.6%
- residual activity (MKNK2 (human)): 99.3%
- residual activity (ROS1 (human)): 37.5%
- residual activity (PAK2 (human)): 97.5%
- residual activity (LTK (human)): 83.9%
- residual activity (STK10 (human)): 95.4%
- residual activity (CAMK2B (human)): 97.6%
- residual activity (PHKG1 (human)): 89.4%
- residual activity (FGFR4 (human)): 92.5%
- residual activity (CHEK2 (human)): 72.8%
- residual activity (PLK1 (human)): 104%
- residual activity (WNK3 (human)): 88.4%
- residual activity (CSF1R (human)): 37.7%
- residual activity (NUAK1 (human)): 25%
- residual activity (CLK3 (human)): 116%
- residual activity (GSK3B (human)): 70.2%
- residual activity (DYRK4 (human)): 97.7%
- residual activity (ACVR1 (human)): 86.9%
- residual activity (HIPK1 (human)): 109%
- residual activity (EPHA2 (human)): 87.9%
- residual activity (MUSK (human)): 95.4%
- residual activity (SRMS (human)): 96.7%
- residual activity (CDK1 CCNA2 (human)): 65.4%
- residual activity (HCK (human)): 94.4%
- residual activity (PLK3 (human)): 91.5%
- residual activity (MAP4K4 (human)): 66.5%
- residual activity (DDR2 (human)): 94.3%
- residual activity (MELK (human)): 84.4%
